The values that follow come from patent US9120753B2, “Phenol derivatives and pharmaceutical or cosmetic use thereof” (GALDERMA RESEARCH & DEVELOPMENT, priority 2009, dated 2015).

pKd: −log10 of the molar value.

The target in one data set is T1, AR receptor (Homo sapiens, UniProt P10275).
T1 construct: expressed in transfected cells; host or cells: PALM (PC3 stably transfected with PMMTV-neo-Luc and pSG5puro-AR)
T1 sequence (P10275 1-920): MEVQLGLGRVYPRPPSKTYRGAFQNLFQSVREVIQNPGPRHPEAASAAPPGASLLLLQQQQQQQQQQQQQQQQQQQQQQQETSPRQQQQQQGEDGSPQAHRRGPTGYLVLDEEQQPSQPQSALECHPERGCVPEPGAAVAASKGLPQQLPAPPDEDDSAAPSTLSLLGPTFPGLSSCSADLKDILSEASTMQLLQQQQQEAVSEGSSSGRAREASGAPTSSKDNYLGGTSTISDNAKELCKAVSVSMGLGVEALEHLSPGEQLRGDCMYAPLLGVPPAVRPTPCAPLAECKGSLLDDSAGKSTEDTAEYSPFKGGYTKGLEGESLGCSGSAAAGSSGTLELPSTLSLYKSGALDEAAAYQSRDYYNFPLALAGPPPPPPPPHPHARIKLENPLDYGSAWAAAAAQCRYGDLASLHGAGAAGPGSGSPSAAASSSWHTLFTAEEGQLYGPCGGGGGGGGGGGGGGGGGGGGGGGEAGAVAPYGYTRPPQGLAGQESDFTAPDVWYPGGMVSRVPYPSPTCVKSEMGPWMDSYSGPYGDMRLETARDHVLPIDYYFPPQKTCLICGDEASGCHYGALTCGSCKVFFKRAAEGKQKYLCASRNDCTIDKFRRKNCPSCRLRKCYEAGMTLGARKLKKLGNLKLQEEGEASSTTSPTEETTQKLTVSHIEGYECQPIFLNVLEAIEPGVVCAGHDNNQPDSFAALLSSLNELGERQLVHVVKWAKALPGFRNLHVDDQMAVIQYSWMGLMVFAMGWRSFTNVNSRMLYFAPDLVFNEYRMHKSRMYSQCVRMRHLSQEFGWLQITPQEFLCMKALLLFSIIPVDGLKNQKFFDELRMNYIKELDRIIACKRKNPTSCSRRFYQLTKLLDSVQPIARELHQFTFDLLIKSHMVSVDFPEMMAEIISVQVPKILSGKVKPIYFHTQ
As to the kind of experiment: transactivation test in PALM (PC3 Androgen receptor Luciferase MMTV) cell line, cross curves against methyltrienolone. The class given is cell-based. As to conditions: cross curves vs reference agonist methyltrienolone, read-out: Kdapp (apparent dissociation constant). The procedure: The compounds according to the invention show inhibitory properties on receptors of AR type. This AR receptor-inhibiting activity is measured in a transactivation test through the KdR (resting), KdA (active) and Kdapp (apparent) dissociation constants according to the method set out in J. Molecular Biology (1965), 12(1), 88-118, Monod J. et al.
The expression “AR-type receptor inhibitor” means, according to the invention, any compound which has a Kdapp dissociation constant of less than or equal to 1 μM, and a KdR/Kda ratio ≦10, in a transactivation test.
The transactivation test is carried out in the PALM (PC3 Androgen receptor Luciferase MMTV) cell line which is a stable transfectant containing the PMMTV-neo-Luc (reporter gene) and pSG5puro-AR plasmids.
In this study, the affinity of each product for the 2 receptor states (KdR and KdA) is determined, as is an apparent Kd (Kdpp). This constant is a result of the 2 Kd, but also depends on the initial equilibrium of the receptor between the active state and the resting state (L0) and on its expression level. It is determined by means of the following formula: 1/KdApp=(L0/(1+L0))x(1/KdR)+(1/(1+L0))x(1/KdA)
To determine these constants, “cross curves” of the test product against a reference agonist, methyltrienolone, are produced in 96-well plates. The test product is used at 10 concentrations and the reference agonist at 7 concentrations.

As a reminder, the melting point is the temperature, or range, at which the solid turns liquid. Molecule `Oc1ccccc1CNc1cncc(Br)c1` [Compound 1, 2-[(5-Bromopyridin-3-ylamino)methyl]phenol] displayed a melting point of 184 °C. Moreover, at AR receptor, the pKd is 8.22.

For the molecule `Oc1cccc(F)c1CNc1cncc(Br)c1` [Compound 2, 2-[(5-Bromopyridin-3-ylamino)methyl]-3-fluorophenol], the pKd at AR receptor is 8.30. The same measure, in the same setting: as for `N#Cc1cncc(NCc2ccccc2O)c1` [Compound 4, 5-(2-Hydroxybenzylamino)nicotinonitrile], the figure is 6.70; as for `CCC(Nc1cncc(Br)c1)c1ccccc1O` (stereo not drawn) [Compound 9, 2-[1-(5-Bromopyridin-3-ylamino)propyl]phenol], 7.22; as for `Cc1cncc(NCc2ccccc2O)c1` [Compound 14, 2-[(5-Methylpyridin-3-ylamino)methyl]phenol], 7.82.
